Measured values taken from patent publication US20090238792A1, “SUPPRESSION OF POSTOPERATIVE ILEUS” (University of Pittsburgh of the Commonwealth System of …, priority 2007, published 2009).

Experiments:
[1] = tested on: rats with surgical manipulation of the intestine; assay: Rat in vivo gastrointestinal transit of fluorescein-labeled dextran (geometric center)
Method: (§1) Age matched animals treated with vehicle (normal saline) or valine (263.5 mg/kg, osmotic control) at appropriate time points and at equal volumes served as controls.
(§2) The rodent intestine was subjected to a standardized degree of surgical manipulation as described previously (14). Rats were anesthetized by isoflurane inhalation and the abdomen was opened by a midline laparotomy. The cecum was eventrated and laid out onto a moist gauze. Then, the intestine was inspected along its length and gently compressed using moist cotton applicators. The midline incision was closed by two layers of continuous sutures. All operative procedures were performed under sterile conditions with the intestine being handled only by instruments and never touched directly. Animals were killed at specific time points postoperatively by isoflurane anesthesia inhalation overdose and heart incision.
(§3) Methods: ACI-rats (180-220 g) underwent standardized surgical manipulation of the intestine. […] Age matched animals treated with vehicle or valine (osmotic control) at appropriate time points and at equal volumes served as controls. […] Postoperative mediator mRNA expression in the intestinal muscularis was determined by real-time RT PCR. Leukocyte extravasation was investigated in muscularis whole-mounts. Nitrite production was measured in muscularis cultures. In vivo transit of FITC-dextran was measured using geometric center analysis (GC). In vitro circular muscle contractility was assessed in a standard organ bath. Statistical analysis: unpaired Student t test, p<0.05, mean±SEM.

[2] = tested on: jejunal circular smooth muscle; assay: In vitro bethanechol stimulated contractile activity of jejunal circular muscle strips; format: in vivo, rat; conditions: for mean contractile force, bethanechol stimulated: manipulated rats, 100 mM bethanechol, control 3.2±0.2, SM vehicle 1.9±0.1
Method: as §1, §2
Mechanical in vitro activity of the rat mid-jejunum was evaluated at 24 hours postoperatively using smooth muscle strips of the circular muscularis as described previously (rats: N=5-11) (14). After dissection and a 30 minute equilibration period, the individual muscles were incrementally stretched to L0. Then after recording spontaneous contractility for 30 minutes, dose response curves were generated using increasing concentrations of the muscarinic agonist bethanechol ([…]) for 10 minutes and intervening wash periods (KRB) of 10 minutes. The contractile response was recorded and analyzed as g/mm2/sec over a 10 minute period.
as §3

ICAM-1 mRNA = conditions: 3 hours postoperatively
Method: as §1, §2
(§4) mRNA Expression Analysis: Postoperative mediator mRNA expressions in the small intestinal muscularis were analyzed using SYBR Green two-step real-time RT-PCR as previously described, (N=4-6). […] Total mRNA extraction was performed using the guanidium-thiocyanate phenol-chloroform extraction method. Equal aliquots (200 ng) of total RNA from each sample, quantified by spectrophotometer, were processed for complimentary DNA (cDNA) synthesis. Primer sequences were used as described previously (tumor necrosis factor-a, TNF-a) (35), or designed according to published sequences 36-41, (GenBank accession numbers: NM_017008 [glyceraldehyde phosphate dehydrogenase (GAPDH)], AF233596 [cyclo-oxygenase-2 (COX-2)], NM_012967 [intercellular adhesion molecule-1 (ICAM-1)], M26744 [interleukin-6 (IL-6)] and NM_012611 [inducible nitric oxide synthase (iNOS)]), using Primer Express software (PE Applied Biosystems, Foster City, Calif.) and purchased from Life Technologies (Rockville, Md.). GAPDH was used as an endogenous control. The efficiency and equality of the real-time PCR primer pairs were determined by amplifying serial dilutions of muscularis cDNA. For each target gene different MgCl2 (3 to 5 mM) concentrations were tested to optimize the PCR amplification. Agarose gel electrophoretic analysis was used to verify the presence of a single product and that the amplified product corresponded to size predicted for the amplicon. The PCR reaction mixture was prepared using the SYBR Green PCR Core Reagents (PE Applied Biosystems, Foster City, Calif.). PCR conditions on an ABI PRISM 7700 Sequence Detection System (PE Applied Biosystems, Foster City, Calif.) were as recommended by the manufacturer. Each sample was estimated in duplicate. […] Relative quantification was performed using the comparative CT method as described by Schmittgen et al. (42).
as §3

TNF-α mRNA = conditions: 3 hours postoperatively
Method: as §1, §2, §4, §3

iNOS mRNA = conditions: 3 hours postoperatively
Method: as §1, §2, §4, §3

prostanoids = assay: Prostanoid release (ELISA) from organ cultured muscularis; format: in vivo, rat; conditions: manipulated rats, glycine 170 mg/kg or valine
Method: Age matched animals treated with vehicle (normal saline) or valine (263.5 mg/kg, osmotic control) at appropriate time points and at equal volumes served as controls. The rodent intestine was subjected to a standardized degree of surgical manipulation as described previously (14). Rats were anesthetized by isoflurane inhalation and the abdomen was opened by a midline laparotomy. The cecum was eventrated and laid out onto a moist gauze. Then, the intestine was inspected along its length and gently compressed using moist cotton applicators. The midline incision was closed by two layers of continuous sutures. All operative procedures were performed under sterile conditions with the intestine being handled only by instruments and never touched directly. Animals were killed at specific time points postoperatively by isoflurane anesthesia inhalation overdose and heart incision. The synthesis of prostanoids released into the tissue culture supernatant over a period of 24 hours was assayed by ELISA. After incubation the culture median and tissue was inspected, 500 μL aliquots of supernatant were frozen in liquid nitrogen and stored at −80° C. The muscle tissue was blotted dry and weighed. Culture supernatants were assayed for the measurement of prostaglandin secretion by enzyme immunoassay (Cayman Chemicals, Ann Arbor, Mich.). The ELISA was carried out in a 1:10 and 1:30 dilution. The assay was corrected for wet tissue weights and the prostaglandin ELISA kit sensitivity was 20 pg/ml.

[3] = Example 5, glycine (170 mg) i.v. 1 hour prior to surgery

NCC(=O)O [glycine]
postoperative intestinal transit [1, 3]: ameliorated | geometric center (GC) of gastrointestinal transit ([1]; surgically manipulated rats, 24 h postoperatively, i.v. pretreatment 1 h before surgery, glycine 170 mg/kg, valine 263.5 mg/kg, SM vehicle GC=5.2±0.7): 8.5±0.7 | amelioration of postoperative muscularis contractility [2, 3]: 54% | mean contractile force, bethanechol stimulated ([2]; 85 mg/kg glycine): 2.4±0.3 g/mm2/s | mean contractile force, bethanechol stimulated ([2]; 170 mg/kg glycine or valine pretreatment): 2.9±0.3 g/mm2/s | ICAM-1 mRNA induction vs non-operated vehicle treated controls (ICAM-1 mRNA; glycine pretreatment, manipulation alone 21 fold): 14 fold | postoperative induction of ICAM-1 mRNA (ICAM-1 mRNA; surgically manipulated rats): attenuation | TNF-α mRNA induction vs non-operated vehicle treated controls (TNF-α mRNA; glycine pretreatment, manipulation alone 3.4 fold): 1.9 fold | postoperative induction of TNF-α mRNA (TNF-α mRNA; surgically manipulated rats): attenuation | surgical induction of iNOS mRNA (iNOS mRNA; SM vehicle 197.1-fold): significantly suppressed | iNOS mRNA induction vs non-operated vehicle treated controls (iNOS mRNA; glycine pretreatment, manipulation alone 197 fold): 17 fold | prostanoid release, fold of control, colon (prostanoids; colonic muscularis 24 h organ culture, SM 3.1-fold): 0.7 fold | prostanoid release, fold of control, jejunum (prostanoids; jejunal muscularis 24 h organ culture, SM 5.9-fold): 0.9 fold
